Read-outs that look alike come from different tables or passages of the source. Blank lines part the entries; values can stand above or below the compound they belong to.
Biological target: T1, human IBAT (Homo sapiens, UniProt Q12908)
T1 construct: expressed in transfected cells; host or cells: Baby hamster kidney (BHK) cells, clone H14
T1 sequence (Q12908 1-348): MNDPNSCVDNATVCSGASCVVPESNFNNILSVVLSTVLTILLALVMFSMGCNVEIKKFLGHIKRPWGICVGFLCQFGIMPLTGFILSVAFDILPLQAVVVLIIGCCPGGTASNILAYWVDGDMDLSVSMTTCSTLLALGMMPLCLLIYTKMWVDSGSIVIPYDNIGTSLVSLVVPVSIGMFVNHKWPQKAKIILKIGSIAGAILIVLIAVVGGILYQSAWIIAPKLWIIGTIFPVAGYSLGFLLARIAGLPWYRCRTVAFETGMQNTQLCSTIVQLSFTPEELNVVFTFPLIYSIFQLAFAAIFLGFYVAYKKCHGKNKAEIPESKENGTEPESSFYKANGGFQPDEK
Test: In vitro assay of IBAT-mediated uptake of [14C]-taurocholate (TC) in H14 cells
Format: cell-based
Details: for inhibition at 100 µM: read-out: In vitro % Inhibition of TC Uptake @ 100 uM
Protocol: In Vitro Assay of Compounds that Inhibit IBAT-Mediated Uptake of [^14C]-Taurocholate (TC) in H14 Cells
Baby hamster kidney cells (BHK) transfected with the cDNA of human IBAT (H14 cells) are seeded at 60,000 cells/well in 96 well Top-Count tissue culture plates for assays run within in 24 hours of seeding, 30,000 cells/well for assays run within 48 hours, and 10,000 cells/well for assays run within 72 hours.
On the day of assay, the cell monolayer is gently washed once with 100 μl assay buffer (Dulbecco's Modified Eagle's medium with 4.5 g/L glucose+0.2% (w/v) fatty acid free bovine serum albumin-(FAF)BSA). To each well 50 μl of a two-fold concentrate of test compound in assay buffer is added along with 50 μl of 6 μM [^14C]-taurocholate in assay buffer (final concentration of 3 μM [^14C]-taurocholate). The cell culture plates are incubated 2 hours at 37° C. prior to gently washing each well twice with 100 μl 4° C. Dulbecco's phosphate-buffered saline (PBS) containing 0.2% (w/v) (FAF)BSA. The wells are then gently washed once with 100 μl 4° C. PBS without (FAF)BSA. To each 200 μl of liquid scintillation counting fluid is added, the plates are heat sealed and shaken for 30 minutes at room temperature prior to measuring the amount of radioactivity in each well on a Packard Top-Count instrument.

[1] = H14 cells, Table 5, read-out: IC50 uM (In vitro Taurocholate Cell Uptake)

inhibition at 100 µM (100 uM): 13%
SMILES: CC[C@@H]1CS(=O)(=O)c2ccccc2[C@H](c2ccccc2)[C@H]1O [Example 14a, (3α,4β,5α)-3-Ethyl-4-hydroxy-5-phenyl-2,3,4,5-tetrahydro-benzothiepine-1,1-dioxide]

inhibition at 100 µM (100 uM): 18%
SMILES: CC[C@@H]1CS(=O)(=O)c2ccccc2[C@@H](c2ccccc2)[C@H]1O [Example 14b, (3α,4β,5β) 3-Ethyl-4-hydroxy-5-phenyl-2,3,4,5-tetrahydrobenzothiepine-1,1-dioxide]

inhibition at 100 µM (100 uM): 0%
SMILES: CCCC[C@]1(CC)CS(=O)(=O)c2ccccc2[C@@H]2O[C@@H]21 [Example 19a, (1aα,2α,8bα) 2-Butyl-2-ethyl-1a,2,3,8b-tetrahydro-benzothiepino[4,5-b]oxirene-4,4-dioxide]

inhibition at 100 µM (100 uM): 15%
SMILES: CCCC[C@]1(CC)CS(=O)(=O)c2ccccc2[C@H]2O[C@H]21 [Example 19b]

inhibition at 100 µM (100 uM): 37%
SMILES: CCCCC1(CC)CS(=O)(=O)c2ccccc2C(Sc2ccccc2)C1O (stereo not drawn) [Example 21a, 3-Butyl-3-ethyl-4-hydroxy-5-phenylthio-2,3,4,5-tetrahydro-benzothiepine-1,1-dioxide]

The next lines start with the compound.

SMILES: CCC1C=C(c2ccccc2)c2ccccc2SC1 (stereo not drawn) [Example 12, 3-Ethyl-5-phenyl-2,3-dihydrobenzothiepine]
inhibition at 100 µM: 25%

SMILES: CCC1CS(=O)(=O)c2ccccc2[C@@]2(c3ccccc3)O[C@@H]12 (stereo partly drawn) [Example 13, (1aα,2α,8bα) 2-Ethyl-8b-phenyl-1a,2,3,8b-tetrahydro-benzothiepino-[4,5-b] oxirene-4,4-dioxide]
inhibition at 100 µM (100 uM): 23%

SMILES: CCCCC1(CC)C=Cc2ccccc2SC1 (stereo not drawn) [Example 18, 3-Butyl-3-ethyl-2,3-dihydrobenzothiepine]
inhibition at 100 µM (100 uM): 6%

SMILES: CCCCCCNc1ccc2c(c1)[C@H](c1ccccc1)[C@H](O)[C@](CC)(CCCC)CS2(=O)=O [Example 40, (3α,4α,5α) 3-Butyl-3-ethyl-7-(n-hexylamino)-4-hydroxy-5-phenyl-2,3,4,5-tetrahydrobenzothiepine-1,1-dioxide]
inhibition at 50 µM: 49%

SMILES: CCCC[C@]1(CC)CS(=O)(=O)c2ccccc2[C@@H](c2ccc(I)cc2)[C@H]1O [Example 42, (3α,4β,5β) 3-Butyl-3-ethyl-4-hydroxy-5-(4-iodophenyl)-2,3,4,5-tetrahydrobenzothiepine-1,1-dioxide]
IC50 [1]: 1.5 µM

SMILES: C1=C(c2ccccc2)c2ccccc2SCC12CCCCC2 [Example 57, 5-Phenyl-2,3-dihydrospirobenzothiepine-3,1′-cyclohexane]
inhibition at 50 µM: 51%

SMILES: O=S1(=O)CC2(CCCCC2)C2OC2(c2ccccc2)c2ccccc21 (stereo not drawn) [Example 58, 8b-Phenyl-1a,2,3,8b-tetrahydrospiro(benzothiepino[4,5-b]oxirene-2,1′-cyclohexane)-4,4-dioxide]
inhibition at 50 µM: 20%

SMILES: CCCC[C@]1(CC)CSc2ccccc2[C@H](c2ccccc2)[C@@H]1O [Example 61, (3α,4α,5α) 3-Butyl-3-ethyl-4-hydroxy-5-phenyl-2,3,4,5-tetrahydrobenzothiepine]
IC50 [1]: 30 µM

SMILES: CCCC[C@]1(CC)CSc2ccccc2[C@@H](c2ccccc2)[C@H]1O [Example 62, (3α,4β,5β) 3-Butyl-3-ethyl-4-hydroxy-5-phenyl-2,3,4,5-tetrahydrobenzothiepine]
IC50 [1]: 10 µM

SMILES: CCCC[C@]1(CC)CS(=O)(=O)c2ccc(N)cc2[C@H](c2ccccc2)[C@@H]1O [Example 63, (3α,4α,5α) 3-Butyl-3ethyl-4-hydroxy-7-amino-5-phenyl-2,3,4,5-tetrahydrobenzothiepine-1,1-dioxide]
inhibition at 6 µM: 90%

SMILES: CCCC[C@]1(CC)CS(=O)(=O)c2ccc(N)cc2[C@@H](c2ccccc2)[C@H]1O [Example 64, (3α,4β,5β) 3-Butyl-3-ethyl-4-hydroxy-7-amino-5-phenyl-2,3,4,5-tetrahydrobenzothiepine-1,1-dioxide]
inhibition at 6 µM: 100%

SMILES: CCCC[C@]1(CC)CS(=O)(=O)c2ccc([N+](C)(C)C)cc2[C@@H](c2ccccc2)[C@H]1O [Example 102]
IC50 (read-out: Human TC IC50): 0.083 µM

SMILES: CCCC[C@]1(CC)CS(=O)(=O)c2ccc(N(C)C)cc2[C@@H](c2ccccc2)[C@H]1O [Example 104]
IC50 (Human TC IC50): 0.0056 µM
